Measured values reported in patent publication US20130303533A1, “AZOLOPYRIDINE AND AZOLOPYRIMIDINE COMPOUNDS AND METHODS OF USE THEREOF” (AMBIT BIOSCIENCES CORPORATION, priority 2010, published 2013).

What was measured:
[1] = biological target: T1, JAK3 (Homo sapiens, UniProt P52333); assay: Competition binding assay to determine binding constants (Kd), JAK3
T1 construct: made in house; host or cells: T7 phage display or HEK-293 cells (alternatives)
T1 sequence (P52333 1-1124): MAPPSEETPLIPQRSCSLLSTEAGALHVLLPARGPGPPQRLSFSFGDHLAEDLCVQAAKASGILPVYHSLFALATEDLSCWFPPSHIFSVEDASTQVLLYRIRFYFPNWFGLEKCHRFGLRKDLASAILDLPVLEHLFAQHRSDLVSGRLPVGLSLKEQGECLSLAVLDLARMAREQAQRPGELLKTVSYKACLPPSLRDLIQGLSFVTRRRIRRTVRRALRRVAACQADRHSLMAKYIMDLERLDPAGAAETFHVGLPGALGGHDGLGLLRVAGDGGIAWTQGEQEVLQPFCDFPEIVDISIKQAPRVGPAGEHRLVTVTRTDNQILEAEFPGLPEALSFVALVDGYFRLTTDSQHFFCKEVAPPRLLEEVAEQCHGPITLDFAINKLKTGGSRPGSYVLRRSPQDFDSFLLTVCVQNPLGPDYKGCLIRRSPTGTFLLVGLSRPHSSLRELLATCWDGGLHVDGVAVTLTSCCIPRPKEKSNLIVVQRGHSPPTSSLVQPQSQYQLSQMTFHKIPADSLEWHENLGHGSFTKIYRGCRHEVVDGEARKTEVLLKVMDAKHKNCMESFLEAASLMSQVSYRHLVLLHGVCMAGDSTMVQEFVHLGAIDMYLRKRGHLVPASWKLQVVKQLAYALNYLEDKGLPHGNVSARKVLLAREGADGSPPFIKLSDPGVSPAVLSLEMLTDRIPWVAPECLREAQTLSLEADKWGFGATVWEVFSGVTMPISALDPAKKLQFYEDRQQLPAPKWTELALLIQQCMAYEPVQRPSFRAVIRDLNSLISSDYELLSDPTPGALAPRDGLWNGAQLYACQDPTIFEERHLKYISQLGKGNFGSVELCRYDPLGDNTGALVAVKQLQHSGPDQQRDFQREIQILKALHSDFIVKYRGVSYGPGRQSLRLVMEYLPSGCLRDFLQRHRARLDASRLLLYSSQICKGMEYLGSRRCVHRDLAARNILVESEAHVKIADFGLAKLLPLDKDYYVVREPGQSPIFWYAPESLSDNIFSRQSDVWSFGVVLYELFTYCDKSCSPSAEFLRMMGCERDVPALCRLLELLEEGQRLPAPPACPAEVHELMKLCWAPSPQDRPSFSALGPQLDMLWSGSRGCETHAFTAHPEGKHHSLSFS
Source text: (§1) Competition Binding Assay to Determine Binding Constants (Kd) of the Compounds Against JAK Kinases
(§2) Competition binding assays used herein were developed, validated and performed as described in Fabian et al., Nature Biotechnology 2005, 23, 329-336. Kinases were produced as fusions to T7 phage (See, Fabian et al. or WO04/015142) or alternatively, the kinases were expressed in HEK-293 cells and subsequently tagged with DNA for PCR detection (See, WO08/005,310). For the binding assays, streptavidin-coated magnetic beads were treated with biotinylated affinity ligands for 30 min at rt to generate affinity resins. The liganded beads were blocked with excess biotin and washed with blocking buffer (SeaBlock (Pierce), 1% BSA, 0.05% Tween 20, 1 mM DTT) to remove unbound ligand and to reduce non-specific binding. Binding reactions were assembled by combining kinase, liganded affinity beads, and test compounds in 1× binding buffer (20% SeaBlock, 0.17×PBS, 0.05% Tween 20, 6 mM DTT). Test compounds were prepared as 100× stocks in DMSO and rapidly diluted into the aqueous environment. DMSO was added to control assays lacking a test compound. Primary screen interactions were performed in polypropylene 384-well plates in a final volume of 34 μL, while Kd determinations were performed in polystyrene 96-well plates in a final volume of 135 μL. The assay plates were incubated at room temperature with shaking for 1 hour, long enough for binding reactions to reach equilibrium, and the affinity beads were washed extensively with wash buffer (1×PBS, 0.05% Tween 20) to remove unbound protein. The beads were then resuspended in elution buffer (1×PBS, 0.05% Tween 20, 2 μM non-biotinylated affinity ligand) and incubated at room temperature with shaking for 30 min. The kinase concentration in the eluates was measured by quantitative PCR. Each kinase was tested individually against each compound. Kds were determined using eleven serial threefold dilutions. A selectivity score, which is a quantitative measure of selectivity of a compound against a panel of enzymes, may be calculated for a compound by dividing the number of enzymes for which a compound meets a set criteria, (for example, a binding constant of 100 nM or less), by the total number of enzymes tested.

[2] = biological target: T2, JAK2 (Homo sapiens, UniProt O60674); assay: Competition binding assay to determine binding constants (Kd), JAK2
T2 construct: made in house; host or cells: T7 phage display or HEK-293 cells (alternatives)
T2 sequence (O60674 whole entry): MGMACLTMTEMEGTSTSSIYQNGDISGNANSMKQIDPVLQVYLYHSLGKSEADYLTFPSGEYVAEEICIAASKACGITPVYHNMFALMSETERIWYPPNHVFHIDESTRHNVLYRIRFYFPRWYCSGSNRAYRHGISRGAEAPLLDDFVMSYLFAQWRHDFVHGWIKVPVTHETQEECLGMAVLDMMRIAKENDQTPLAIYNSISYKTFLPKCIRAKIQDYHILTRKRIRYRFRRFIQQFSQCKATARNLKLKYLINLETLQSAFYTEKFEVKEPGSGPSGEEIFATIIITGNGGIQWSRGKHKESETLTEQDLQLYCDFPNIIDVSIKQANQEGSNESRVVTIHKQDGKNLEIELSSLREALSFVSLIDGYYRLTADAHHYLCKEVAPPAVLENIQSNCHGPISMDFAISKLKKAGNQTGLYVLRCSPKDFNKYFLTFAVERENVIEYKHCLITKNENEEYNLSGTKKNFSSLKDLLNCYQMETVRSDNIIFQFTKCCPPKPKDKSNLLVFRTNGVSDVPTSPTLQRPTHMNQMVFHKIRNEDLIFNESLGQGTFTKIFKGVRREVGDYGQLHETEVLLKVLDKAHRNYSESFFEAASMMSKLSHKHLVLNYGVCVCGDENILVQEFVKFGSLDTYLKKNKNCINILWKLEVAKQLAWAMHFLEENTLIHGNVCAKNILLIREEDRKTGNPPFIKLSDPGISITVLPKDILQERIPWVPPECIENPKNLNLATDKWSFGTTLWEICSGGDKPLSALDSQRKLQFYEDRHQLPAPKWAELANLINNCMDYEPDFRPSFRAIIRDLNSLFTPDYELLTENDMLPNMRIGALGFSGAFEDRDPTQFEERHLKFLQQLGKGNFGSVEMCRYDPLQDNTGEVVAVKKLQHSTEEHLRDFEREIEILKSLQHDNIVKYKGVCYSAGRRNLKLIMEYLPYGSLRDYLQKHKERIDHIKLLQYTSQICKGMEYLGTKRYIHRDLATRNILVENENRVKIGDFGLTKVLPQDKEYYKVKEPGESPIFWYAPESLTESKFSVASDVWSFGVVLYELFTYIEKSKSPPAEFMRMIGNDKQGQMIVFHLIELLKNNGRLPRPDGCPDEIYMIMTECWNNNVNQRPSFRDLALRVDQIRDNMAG
Source text: as §1, §2

[3] = system: GM-CSFR/JAK2/STAT5 pathway; assay: CSTF-1 cell-based reporter assay; conditions: Homo sapiens; csTF-1 cells, GM-CSF at 2 ng/mL, 4 hours, beta-lactamase reporter; read-out: Cell Assay: CS TF-1 reporter assay IC50
Procedure: CSTF-1 Cell-Based Reporter Assay
CSTF-1 cells are derived from the human erythroleukemia cell line that is growth dependent on GM-CSF and has an intact GM-CSFR/JAK2/STAT5 pathway. The cell line contains stably integrated beta-lactamase reporter gene under the control of the […] (irf 1) response element recognized by the activated transcription factor STAT5. csTF-1 cells (Invitrogen K1219) were washed with assay media (97% OPTIMEM/0.5% dialyzed FBS/0.1 mM NEAA/1 mM Na pyr/P/S) and seeded in the same media at 5×10^5 cell/mL in T150 flask. After 16 hour incubation, cells were seeded at 2×10^5 cell/well in 50 μl volume, into Costar, clear bottom, 96-well assay plates. Serial dilutions of compounds were added to the plates with final DMSO concentration at 0.5% and GM-CSF at 2 ng/mL and the plates were then incubated at 30° C. and 5% CO2 for 4 hours. The plates were brought to room temperature before adding Substrate Mixture according to manufacturer's protocol (Invitrogen, Catalog #K1085). The assay plates containing the substrate mixture were incubated in the dark at room temperature for 2 hours. Blue and green fluorescence was measured with excitation at 409 nm and emission at 460 nm (for blue) and excitation at 409 nm and emission at 530 nm (for green) using Spectra Max Gemini EM.

[4] = biological target: T3, TYK2 (Homo sapiens, UniProt P29597); assay: Competition binding assay to determine binding constants (Kd), TYK2
T3 construct: made in house; host or cells: T7 phage display or HEK-293 cells (alternatives)
T3 sequence (P29597 whole entry): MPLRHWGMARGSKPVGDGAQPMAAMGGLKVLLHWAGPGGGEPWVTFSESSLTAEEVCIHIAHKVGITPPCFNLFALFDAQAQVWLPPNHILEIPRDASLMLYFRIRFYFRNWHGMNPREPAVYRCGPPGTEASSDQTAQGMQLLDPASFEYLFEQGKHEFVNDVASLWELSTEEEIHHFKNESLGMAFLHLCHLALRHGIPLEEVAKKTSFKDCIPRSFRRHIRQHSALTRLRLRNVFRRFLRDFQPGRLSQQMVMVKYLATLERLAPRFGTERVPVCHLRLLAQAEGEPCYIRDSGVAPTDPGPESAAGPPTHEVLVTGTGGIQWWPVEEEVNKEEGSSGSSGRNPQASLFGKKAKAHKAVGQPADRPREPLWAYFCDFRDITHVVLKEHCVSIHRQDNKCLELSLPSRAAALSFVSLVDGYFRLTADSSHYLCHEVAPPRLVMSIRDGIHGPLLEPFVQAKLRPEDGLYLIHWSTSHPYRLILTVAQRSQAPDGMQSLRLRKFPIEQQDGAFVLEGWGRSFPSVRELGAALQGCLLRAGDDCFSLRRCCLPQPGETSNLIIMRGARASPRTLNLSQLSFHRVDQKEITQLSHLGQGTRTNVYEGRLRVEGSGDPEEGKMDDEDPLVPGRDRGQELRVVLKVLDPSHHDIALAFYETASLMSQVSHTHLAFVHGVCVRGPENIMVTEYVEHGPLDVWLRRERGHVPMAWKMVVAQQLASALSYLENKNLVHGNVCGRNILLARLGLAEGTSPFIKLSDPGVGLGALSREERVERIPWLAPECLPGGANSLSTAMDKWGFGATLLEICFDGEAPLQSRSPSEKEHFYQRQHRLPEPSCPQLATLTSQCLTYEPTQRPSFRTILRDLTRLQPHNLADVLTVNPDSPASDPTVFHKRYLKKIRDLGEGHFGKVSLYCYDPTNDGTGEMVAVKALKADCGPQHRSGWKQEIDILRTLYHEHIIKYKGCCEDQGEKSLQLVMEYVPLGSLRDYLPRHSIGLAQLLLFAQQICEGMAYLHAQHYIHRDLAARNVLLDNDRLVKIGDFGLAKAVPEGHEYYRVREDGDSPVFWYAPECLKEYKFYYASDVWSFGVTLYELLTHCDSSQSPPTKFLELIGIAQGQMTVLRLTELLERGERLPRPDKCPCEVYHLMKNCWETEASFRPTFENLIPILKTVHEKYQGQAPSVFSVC
Source text: as §1, §2

SMILES | Kd [1] [nM] | Kd [2] [nM] | IC50 [3] [nM] | Kd [4] [nM]
Cc1cc(Nc2nc(C(F)(F)c3ccc(F)cc3)nc3c2cnn3CCN2CCOCC2)n[nH]1 [Example 32, 6-(difluoro(4-fluorophenyl)methyl)-N-(5-methyl-1H-pyrazol-3-yl)-1-(2-morpholinoethyl)-1H-pyrazolo[3,4-d]pyrimidin-4-amine] | 10 to 100 | 1 to 10 | 100 to 500 | ≤ 10
Cc1cc(Nc2nc(C(F)(F)c3ccc(F)cn3)nc3c2cnn3C)n[nH]1 [Example 34, 6-(difluoro(5-fluoropyridin-2-yl)methyl)-1-methyl-N-(5-methyl-1H-pyrazol-3-yl)-1H-pyrazolo[3,4-d]pyrimidin-4-amine] | 10 to 100 | ≤ 1 | 100 to 500 | ≤ 10
Cc1cc(Nc2nc(C(F)(F)c3ccc(F)cc3)nc3nc(N4CCOCC4)sc23)n[nH]1 [Example 37, 5-(difluoro(4-fluorophenyl)methyl)-N-(5-methyl-1H-pyrazol-3-yl)-2-morpholinothiazolo[4,5-d]pyrimidin-7-amine] | ≤ 10 | ≤ 1 | 100 to 500 | ≤ 10
COc1nc2nc(C(F)(F)c3ccc(F)cc3)nc(Nc3cc(C)[nH]n3)c2s1 [Example 39, 5-(difluoro(4-fluorophenyl)methyl)-2-methoxy-N-(5-methyl-1H-pyrazol-3-yl)thiazolo[4,5-d]pyrimidin-7-amine] | 10 to 100 | 1 to 10 | 100 to 500 | ≤ 10
CNc1nc2nc(C(F)(F)c3ccc(F)cc3)nc(Nc3cc(C)[nH]n3)c2s1 [Example 42, 5-(difluoro(4-fluorophenyl)methyl)-N2-methyl-N7-(5-methyl-1H-pyrazol-3-yl)thiazolo[4,5-d]pyrimidine-2,7-diamine] | ≤ 10 | 1 to 10 | 100 to 500 | ≤ 10
Cc1cc(Nc2nc(C(F)(F)c3ccc(F)cc3)nc3nc(C#N)sc23)n[nH]1 [Example 40, 5-(difluoro(4-fluorophenyl)methyl)-7-(5-methyl-1H-pyrazol-3-ylamino)thiazolo[4,5-d]pyrimidine-2-carbonitrile] | 10 to 100 | 1 to 10 | > 500 | ≤ 10
Cc1cc(Nc2nc([S+]([O-])c3ccc(F)cc3)nc3[nH]ccc23)n[nH]1 (racemic) [Example 2, (R,S)-2-(4-fluorophenylsulfinyl)-N-(5-methyl-1H-pyrazol-3-yl)-7H-pyrrolo[2,3-d]pyrimidin-4-amine] | ≤ 10 | ≤ 1 | ≤ 100 | ≤ 10
Cc1cc(Nc2nc(C(F)(F)c3ccc(F)cc3)nc3nn(C)cc23)n[nH]1 [Example 20, 6-(difluoro(4-fluorophenyl)methyl)-2-methyl-N-(5-methyl-1H-pyrazol-3-yl)-2H-pyrazolo[3,4-d]pyrimidin-4-amine] | 10 to 100 | ≤ 1 | 100 to 500 | ≤ 10
[O-][S+](c1ccc(F)cc1)c1nc(Nc2cc[nH]n2)c2cc[nH]c2n1 (racemic) [Example 1, (R,S)-2-(4-fluorophenylsulfinyl)-N-(1H-pyrazol-3-yl)-7H-pyrrolo[2,3-d]pyrimidin-4-amine] | 10 to 100 | ≤ 1 | ≤ 100 | ≤ 10

Further lines, results first:

Kd [1] [nM] | Kd [2] [nM] | IC50 [3] [nM] | Kd [4] [nM] | SMILES
≤ 10 | ≤ 1 | ≤ 100 | ≤ 10 | Cc1cc(Nc2nc(S(=O)(=O)c3ccc(F)cc3)nc3c2ccn3C(C)C)n[nH]1 [Example 10, 2-(4-fluorophenylsulfonyl)-7-isopropyl-N-(5-methyl-1H-pyrazol-3-yl)-7H-pyrrolo[2,3-d]pyrimidin-4-amine]
≤ 10 | ≤ 1 | ≤ 100 | ≤ 10 | COCCn1ccc2c(Nc3cc(C)[nH]n3)nc(S(=O)(=O)c3ccc(F)cc3)nc21 [Example 11, 2-(4-fluorophenylsulfonyl)-7-(2-methoxyethyl)-N-(5-methyl-1H-pyrazol-3-yl)-7H-pyrrolo[2,3-d]pyrimidin-4-amine]
> 100 | 1 to 10 | 100 to 500 | ≤ 10 | Cc1cc(Nc2nc(S(=O)(=O)c3ccc(F)cc3)nc3c2cnn3C(C)(C)C)n[nH]1 [Example 25, 1-tert-butyl-6-(4-fluorophenylsulfonyl)-N-(5-methyl-1H-pyrazol-3-yl)-1H-pyrazolo[3,4-d]pyrimidin-4-amine]
10 to 100 | ≤ 1 | 100 to 500 | ≤ 10 | Cc1cc(Nc2nc(S(=O)(=O)c3ccc(F)cc3)nc3c2cnn3C2CCOCC2)n[nH]1 [Example 28, 6-(4-fluorophenylsulfonyl)-N-(5-methyl-1H-pyrazol-3-yl)-1-(tetrahydro-2H-pyran-4-yl)-1H-pyrazolo[3,4-d]pyrimidin-4-amine]
≤ 10 | ≤ 1 | 100 to 500 | ≤ 10 | Cc1cc(Nc2nc(S(=O)(=O)c3ccc(F)cc3)nc3c2ccn3CC(=O)N(C)C)n[nH]1 [Example 15]
10 to 100 | ≤ 1 | 100 to 500 | ≤ 10 | Cc1cc(Nc2nc(S(=O)(=O)c3ccc(F)cc3)nc3[nH]ncc23)n[nH]1 [Example 27, 6-(4-fluorophenylsulfonyl)-N-(5-methyl-1H-pyrazol-3-yl)-1H-pyrazolo[3,4-d]pyrimidin-4-amine]
10 to 100 | ≤ 1 | ≤ 100 | ≤ 10 | CCn1ncc2c(Nc3cc(C)[nH]n3)nc(S(=O)(=O)c3ccc(F)cc3)nc21 [Example 24, 1-ethyl-6-(4-fluorophenylsulfonyl)-N-(5-methyl-1H-pyrazol-3-yl)-1H-pyrazolo[3,4-d]pyrimidin-4-amine]
